US20240032539A1, “CONCENTRATED FUNGICIDE COMPOSITION OF PROTHIOCONAZOLE AND PICOXYTROBIN” (priority 2020, published 2024)
Where two headings read alike, the source gives them in different places.

Legend:
[1] = cited from earlier work; for Log Know (P Log) / Know P: triazole fungicides, Table 01; for Know or P / Log Know or Log P: strobirulins, Table 2
[2] = cited from earlier work; for Classification (dissociation) / Dissociation Constant - Pka: triazole fungicides, Table 01; for ionization: strobirulins, Table 2
[3] = cited from earlier work; for Solubility in water: triazole fungicides, Table 01; for Solubility-water: strobirulins, Table 2
[4] = Eiq risk indicator of pesticides (Kovach et al.; Eiq Calculator); details: for Total Eiq (% of picoxystrobin): as percentage of the picoxystrobin value
Description: With all this complexity, the question that arises is: is there any risk indicator for the use of pesticides that is accurate, simple to use and easily understandable? So far, the best available option is the Eiq proposed by Kovach et al. (1992).
This indicator is calculated from a total of […] characteristics of pesticides: dermal toxicity, chronic toxicity, systemicity, toxicity to fish, leaching potential, potential for movement on the soil surface, toxicity to birds, time to degrade 50% in soil, toxicity to bees, toxicity to beneficial arthropods and time to degrade 50% on plant surface.
The total Eiq is characteristic of each active ingredient and corresponds to the average of three other more specific coefficients calculated from subgroups of the aforementioned characteristics: Eiq Ecological, Eiq for the worker and Eiq for the consumer.
The Eiq values are dimensionless and can be determined for 1 kg of the active ingredient (to compare the safety of different compounds) or per hectare treated (considers the variable effective dose of use). There are applications that do the calculation automatically such as Eiq Calculator (Cornell—CALS, 2018).

[5] = strobirulins, Table 2; cited from earlier work
[6] = cited from earlier work; for Consumer Eiq / Ecological Eiq / Total Eiq / Worker Eiq: for 1 kg of the compound; for Total Equi: per kg of compound, Table 2
[7] = test system: complex of diseases in soybean; experiment: LD50 of strobilurins, populations of different locations and dates of collection; details: mean over locations and dates of collection
Description: Additional tests were conducted with populations with extreme values to verify the correlation of ED50 values with field efficiency and confirm this elevation in values. The same tests were installed in order to compare the most used strobilurins in soybean crops.
All estimated LD50 values were below 1 μg. mL−1, regardless of product, location and date of collection.
That said, it can be stated that the combination of triazole with greater intrinsic activity to strobilurin with the same characteristics makes OFA-T 0143/17 (prothioconazole+picoxystrobin) an excellent tool to assist in the integrated management of diseases in the soybean crop.

Compound: CCCCC(O)(Cn1cncn1)c1ccc(Cl)cc1Cl (stereo not drawn) [hexaconazole]
- Log Know (P Log) [1]: 3.9
- Classification (dissociation) [2]: Strong acid

Compound: CCCC1COC(Cn2cncn2)(c2ccc(Cl)cc2Cl)O1 (stereo not drawn) [propiconazole]
- Solubility in water [3]: 150 mg/L or PPM
- Log Know (P Log) [1]: 3.72
- Classification (dissociation) [2]: Very weak base
- Dissociation Constant - Pka [2]: 1.09

Compound: CON=C(C(=O)OC)c1ccccc1CON=C(C)c1cccc(C(F)(F)F)c1 [trifloxystrobin]
- Know or P [1]: 31623 dimensionless
- Total Equi [4]: 10.4 Units/Mol
- more Eiq units required so that 10 g of the compound remained in the plant matrix, versus picoxystrobin ([4]; 14 days): 35.54%
- ionization [2]: Non-ionizable

Compound: Clc1ccc(C2(Cn3cncn3)OCCO2)c(Cl)c1 [azaconazole]
- Solubility in water [3]: 300 mg/L or PPM
- Know P [1]: 229.1
- Log Know (P Log) [1]: 2.36
- Classification (dissociation) [2]: Very weak base
- Dissociation Constant - Pka [2]: 3

Compound: Fc1ccc([C@]2(Cn3cncn3)O[C@H]2c2ccccc2Cl)cc1 (racemic) [epoxiconazole]
- Log Know (P Log) [1]: 3.3
- Classification (dissociation) [2]: No dissociation

Compound: O=c1c2cc(F)ccc2nc(-n2cncn2)n1-c1ccc(Cl)cc1Cl [fluquinconazole]
- Log Know (P Log) [1]: 3.24
- Classification (dissociation) [2]: Strong acid
- Dissociation Constant - Pka [2]: 0.9

Compound: N#CC(CCc1ccc(Cl)cc1)(Cn1cncn1)c1ccccc1 (stereo not drawn) [fenbuconazole]
- Solubility in water [3]: 2.47 mg/L or PPM
- Log Know (P Log) [1]: 3.79
- Classification (dissociation) [2]: No dissociation

Compound: CO/C=C(/C(=O)OC)c1ccccc1COc1cccc(C(F)(F)F)n1 [picoxystrobin, (E)-3-methoxy-2-{2-[6-(trifluoromethyl)-2-pyridyloxymethyl]phenyl}methyl acrylate]
- Solubility-water [3]: 3.1 mg/L or PPM
- Know or P [1]: 3981 dimensionless
- Log Know or Log P [1]: 3.6 dimensionless
- RL50 in plants [5]: 6.9 days
- Consumer Eiq [6]: 5.1
- Ecological Eiq [6]: 25.0
- Total Eiq [6]: 11.7
- Worker Eiq [6]: 5.1
- Total Equi [6]: 11.7 Units/Kg
- Total Eiq (% of picoxystrobin) ([4]; Units/Kg): 100.0%
- Total Eiq (% of picoxystrobin) ([4]; Units/Mol): 100.0%
- Consumer Eiq ([4]; dose of 80g a.i./ha): 0.408
- Ecological Eiq ([4]; dose of 80g a.i./ha): 2.00
- Total Eiq ([4]; dose of 80g a.i./ha): 0.936
- Worker Eiq ([4]; dose of 80g a.i./ha): 0.408
- Total Eiq ([4]; per Mol of compound, Table 2): 4.3 Units/Mol
- average reduction of risks for consumers, workers and the environment versus azoxystrobin ([4]; per kg): 49.13%
- average reduction of risks for consumers, workers and the environment versus pyraclostrobin ([4]; per kg): 49.35%
- average reduction of risks for consumers, workers and the environment versus trifloxystrobin ([4]; per kg): 54.12%
- total Eiq value expressed as a percentage of the value observed for azoxystrobin ([4]; per kg): 50.87%
- total Eiq value expressed as a percentage of the value observed for pyraclostrobin ([4]; per kg): 50.65%
- total Eiq value expressed as a percentage of the value observed for trifloxystrobin ([4]; per kg): 45.88%
- LD50 mean [7]: 0.18 µg/mL
- ionization [2]: Non-ionizable

Compound: CC(C)(C)C(O)(CCc1ccc(Cl)cc1)Cn1cncn1 (stereo not drawn) [tebuconazole]
- Log Know (P Log) [1]: 3.7
- Classification (dissociation) [2]: Weak acid

Compound: CC1(C)CCC(=Cc2ccc(Cl)cc2)C1(O)Cn1cncn1 (stereo not drawn) [triticonazole]
- Log Know (P Log) [1]: 3.29
- Classification (dissociation) [2]: No dissociation

Compound: COC(=O)N(OC)c1ccccc1COc1ccn(-c2ccc(Cl)cc2)n1 [pyraclostrobin]
- Solubility-water [3]: 1.5 mg/L or PPM
- Know or P [1]: 9772 dimensionless
- RL50 in plants [5]: 4.7 days
- Total Equi [6]: 23.1 Units/Kg
- Total Eiq (% of picoxystrobin) ([4]; Units/Kg): 197.4%
- Total Eiq (% of picoxystrobin) ([4]; Units/Mol): 208.5%
- Total Eiq ([4]; per Mol of compound, Table 2): 9.0 Units/Mol
- LD50 mean [7]: 0.21 µg/mL
- ionization [2]: Non-ionizable

Compound: Clc1ccc(C2(Cn3cncn3)CC(Br)CO2)c(Cl)c1 (stereo not drawn) [bromuconazole]
- Solubility in water [3]: 48.3 mg/L or PPM
- Log Know (P Log) [1]: 3.24
- Classification (dissociation) [2]: Strong acid
- Dissociation Constant - Pka [2]: 2.75

Compound: OC(Cc1ccccc1Cl)(Cn1nc[nH]c1=S)C1(Cl)CC1 (racemic) [prothioconazole, (RS)-2-[2-(1-chlorocyclopropyl)-3-(2-chlorophenyl)-2-hydroxypropyl]-2,4-dihydro1,2,4-triazole-3-thione]
- Solubility in water [3]: 22.5 mg/L or PPM
- Know P [1]: 100
- Log Know (P Log) [1]: 2
- Consumer Eiq [6]: 10.5
- Ecological Eiq [6]: 55.5
- Total Eiq [6]: 26.9
- Worker Eiq [6]: 13.9
- Consumer Eiq ([4]; dose of 96 g a.i./ha): 1.008
- Ecological Eiq ([4]; dose of 96 g a.i./ha): 5.33
- Total Eiq ([4]; dose of 96 g a.i./ha): 2.58
- Worker Eiq ([4]; dose of 96 g a.i./ha): 1.33
- Classification (dissociation) [2]: Weak acid
- Dissociation Constant - Pka [2]: 6.9

Compound: CC1(C)CCC(Cc2ccc(Cl)cc2)C1(O)Cn1cncn1 (stereo not drawn) [metconazole]
- Log Know (P Log) [1]: 3.85
- Classification (dissociation) [2]: Very weak acid

Compound: CC(C)(C)C(O)/C(=C\c1ccc(Cl)cc1)n1cncn1 (stereo not drawn) [uniconazole]
- Solubility in water [3]: 8.41 mg/L or PPM
- Log Know (P Log) [1]: 3.84
- Classification (dissociation) [2]: Very weak acid
- Dissociation Constant - Pka [2]: 13.07

Compound: CC1COC(Cn2cncn2)(c2ccc(Oc3ccc(Cl)cc3)cc2Cl)O1 (stereo not drawn) [diphenococonazole]
- Log Know (P Log) [1]: 4.36
- Classification (dissociation) [2]: Strong acid
- Dissociation Constant - Pka [2]: 1.07

Compound: CO/C=C(/C(=O)OC)c1ccccc1Oc1cc(Oc2ccccc2C#N)ncn1 [azoxystrobin]
- Solubility-water [3]: 6.7 mg/L or PPM
- Know or P [1]: 316 dimensionless
- Log Know or Log P [1]: 2.5 dimensionless
- RL50 in plants [5]: 7.0 days
- Total Equi [6]: 23.0 Units/Kg
- Total Eiq (% of picoxystrobin) ([4]; Units/Kg): 196.6%
- Total Eiq (% of picoxystrobin) ([4]; Units/Mol): 215.7%
- Total Eiq ([4]; per Mol of compound, Table 2): 9.3 Units/Mol
- LD50 mean [7]: 0.23 µg/mL
- ionization [2]: Non-ionizable

Compound: FC(F)C(F)(F)OCC(Cn1cncn1)c1ccc(Cl)cc1Cl (stereo not drawn) [tetraconazole]
- Log Know (P Log) [1]: 3.56
- Classification (dissociation) [2]: Strong acid

Compound: CCCC(Cn1cncn1)c1ccc(Cl)cc1Cl (stereo not drawn) [penconazole]
- Classification (dissociation) [2]: Very weak base
- Dissociation Constant - Pka [2]: 1.51

Compound: CC(C1CC1)C(O)(Cn1cncn1)c1ccc(Cl)cc1 (stereo not drawn) [cyproconazole]
- Log Know (P Log) [1]: 3.09
- Classification (dissociation) [2]: No dissociation
